Reference: publication PMC11050087, “Polyphenols from Maackia amurensis Heartwood Protect Neuronal Cells from Oxidative Stress and Prevent Herpetic Infection” (International Journal of Molecular Sciences, 2024)
Several values for one entry are separate records, joined by “and”; a condition that tells them apart may be missing. Identical values can stand only once. Like-named read-outs stand apart in the source and are kept apart here.

Columns and labels:
HSV-1 [1] = experiment: Virucidal activity, CPE inhibition assay (HSV-1 pretreated with compounds); type: cell-based, HSV-1 strain L2; details: for IC50: Human alphaherpesvirus 1, virus pretreated with compound (virucidal), Vero cells, 100 TCID50/mL; for SI: ratio of CC50 to IC50, virucidal scheme
[2] = tested on: 6-OHDA-treated Neuro-2a cells; experiment: Apoptosis profile by flow cytometry (Annexin V & Dead Cell Kit); type: cell-based, murine; details: Table 1; polyphenols 10 µM, 6-OHDA 100 µM, 24 h; mean
Protocol: We investigated the effect of polyphenolic compounds from M. amurensis on apoptosis profile in 6-OHDA-treated Neuro-2a cells by flow cytometry using fluorescent annexin V conjugate as a fluorescent dye. We observed significant changes in apoptosis profile in Neuro-2a cells after 6-OHDA-treatment. […] Polyphenols 3, 6 and 13 diminished the neurotoxic effect of 6-OHDA-treatment.
The cells were incubated for 1 h in a 6-well plate (5 × 10^4 cells/mL) with polyphenolic compounds (10 µM). Then, 6-OHDA (100 µM) was added, and cell suspension was incubated for 24 h. After incubation, the maintenance media was collected, and the cells were washed by cold PBS twice and incubated with trypsin-EDTA solution. The cell suspension was washed with cold PBS twice again, centrifugated and then used for apoptosis detection by Muse® Annexin V & Dead Cell Kit in accordance with the manufacturer’s instructions (Luminex, Austin, TX, USA). The fluorescence was measured with Muse® Cell Analyzer (Luminex, Austin, TX, USA) and the data were processed by Muse 1.5 Analysis software (Luminex, Austin, TX, USA).

HSV-1 [3] = experiment: Treatment of virus-infected cells with polyphenols, CPE inhibition assay; type: cell-based, HSV-1 strain L2; details: for IC50: Human alphaherpesvirus 1, compound added after virus adsorption and penetration, CPE assay; for Treatment of Infected Cells SI: ratio of CC50 to IC50
Protocol: (§1) In order to study the mechanism of action of these compounds, two additional schemes of treatment of the virus and Vero cells with polyphenols were applied: the compounds were added before virus infection (pretreatment of cells) and after penetration of the virus into host cells (treatment of infected cells). The fourth method of exposure where the virus and polyphenols were added to cells simultaneously (simultaneous treatment) was previously described by us in [22]. The anti-HSV-1 activity of polyphenols was assessed using the cytopathic effect inhibition (CPE) assay.
The monolayer of cells was infected with the virus (100 TCID50/mL) at 37 °C for 1 h, and then the cells were washed with PBS (Sigma, Saint-Louis, MO, USA) and treated with different concentrations of the studied compounds and incubated until CPE appeared.

HSV-1 [4] = experiment: Pretreatment of cells with polyphenolic compounds, CPE inhibition assay; type: cell-based, HSV-1 strain L2; details: for IC50: Human alphaherpesvirus 1, cells pretreated 2 h before infection, CPE assay; for Pretreatment of Cells SI: ratio of CC50 to IC50
Protocol: as §1
The monolayer of cells was pretreated with different concentrations of the studied compounds for 2 h at 37 °C. After washing, the cells were infected with 100 TCID50/mL of the virus at 37 °C for 1 h. Then, unabsorbed virus was removed by washing with PBS (Sigma, Saint-Louis, MO, USA), and cells were incubated in the maintenance medium until CPE appeared.

HSV-1 [5] = tested on: HSV-1; design: method as in PMID 36985562; details: ref [22], cited from earlier work; for Simultaneous Treatment SI: ratio of CC50 to IC50; for Simultaneous Treatment IC50 / IC50: virus and compound added to cells simultaneously, CPE assay; for IC50: read-out: Simultaneous Treatment IC50
[6] = tested on: 6-OHDA-treated Neuro-2a cells; experiment: 6-OHDA-induced neurotoxicity model, cell viability test (MTT); type: cell-based, murine; details: compounds at 10, 1, 0.1 µM; 6-OHDA 100 µM
[7] = Cytotoxicity against Vero cells (MTT assay); type: cell-based; details: African green monkey
Protocol: We prepared the stock solutions of the tested compounds (10 mg/mL) in DMSO (Sigma, St. Louis, MO, USA). For the MTT assay and further studies of anti-HSV-1 activity, we diluted the stock solutions with DMEM so that the final concentration of DMSO was 0.5%.
We used MTT assay to determine the cytotoxic effect of the tested compounds against Vero cells. We performed the MTT assay as previously described.

Structure (SMILES) | virucidal activity against HSV-1 (in words) (HSV-1 [1]; CPE assay, virus pretreated with compound) | Dead [2] [%] | Early apop. [2] [%] | Late apop./Dead [2] [%] | Live [2] [%] | IC50 (HSV-1 [3]) | Treatment of Infected Cells SI (HSV-1 [3]) | IC50 (HSV-1 [1]; CPE assay) | SI (HSV-1 [1]) | IC50 (HSV-1 [4]) | Pretreatment of Cells SI (HSV-1 [4]) | Simultaneous Treatment SI (HSV-1 [5]) | Simultaneous Treatment IC50 (HSV-1 [5]) [µg/mL] | IC50 (HSV-1 [5]) [µM] | effect on viability of 6-OHDA-treated Neuro-2a cells (in words) [6] | CC50 [7]
O=C1C[C@@H](c2ccc(O)cc2)Oc2cc(O)ccc21 [Compound 6, liquiritigenin] | did not show virucidal activity | 0.61 ± 0.13 | 27.67 ± 1.09 | 10.89 ± 0.86 | 61.83 ± 0.09 | – | – | – | – | – | – | – | – | – | – | –
Oc1cc(O)cc(/C=C/c2ccc3c(c2)O[C@H](c2cc(O)cc(O)c2)[C@@H](c2ccc(O)c(O)c2)O3)c1 [Compound 9, maackin] | – | – | – | – | – | 24.5 µg/mL and 50.4 µM | 11.0 ± 1.4 | 2.4 µg/mL and 4.9 µM | 112.3 and 112.3 ± 13.5 | 70.3 µg/mL and 145 µM | 3.8 and 3.8 ± 0.5 | 15.3 ± 1.9 | 17.6 ± 2.3 | 36.2 ± 4.7 | did not show significant activity | –
Oc1ccc(/C=C/c2cc(O)cc3c2[C@H](c2cc(O)cc(O)c2)[C@@H](c2ccc(O)c(O)c2)O3)cc1 [Compound 13, scirpusin A] | – | 0.73 ± 0.15 | 30.18 ± 1.13 | 12.2 ± 0.34 | 56.90 ± 1.32 | 20.2 µg/mL and 43 µM | 9.8 ± 1.2 | 2.6 µg/mL and 5.5 µM | – | 47.2 µg/mL and 100 µM | 4.2 and 4.2 ± 0.6 | 14.4 ± 1.7 | 13.8 ± 1.6 | 29.4 ± 3.4 | – | 424 ± 50.1 µM
Oc1ccc(/C=C/c2cc(O)cc(O)c2)cc1 [Compound 1, resveratrol] | – | – | – | – | – | – | – | 9.6 µg/mL and 42.1 µM | 12.8 ± 1.9 | – | – | – | – | – | did not cause any increase in the viability | 123 µg/mL and 540 µM
